From patent US5073571A, “Method of inhibiting virus” (priority 1989, dated 1991)

Tests used:
H9 cells = assay: [3H]leucine and [3H]thymidine labeling (protein and DNA synthesis) in HIV-1 infected H9 cells; type: cell-based, human; conditions: day 10
Description: (§1) Media was changed every other day. The effect of these compounds on virus production was determined by measuring the reverse transcriptase (RT) activity in samples of the cell culture supernatants. […] Negative controls consisted of no additions or 0.1ethanol. The results of duplicate assays were averaged. Panel B -Concentration-dependent effects of 13-oxamyristic acid on HIV-1 replication as measured by RT activity (percent of untreated control) and the presence of p24 antigen (ng/ml determined by ELISA). Error bars indicate the S.E.M. of assays done in triplicate. […] Panel D - Toxicity of 13-oxamyristic acid determined by viable cell count (trypan blue exclusion), as well as by [^3 H]thymidine and [^3 H]leucine labeling (see under Materials and Methods, Example 16, below). The incorporation of these radiolabeled compounds was determined in the total cell population contained in a well after 10 days of treatment with the analog. […]
Toxicity Studies. […] Cell survival was determined by trypan-blue exclusion. The number of unstained cells/mL in the treated cultures was divided by the number of unstained cells/mL in the untreated control cultures and expressed as percent control. Protein synthesis was measured at the end of the treatment periods by metabolic labeling for 4 hrs with L-[4,5^3 H(N)]-leucine (2 μCi/mL media, specific activity =140 Ci/mmol). […]

HIV-1 [1] = assay: HIV-1 replication in H9 cells, p24 antigen ELISA; type: cell-based, HIV-1 strain HXB2gptX (in human H9 cells); conditions: 20-40 μM range
Description: as §1
Assay for HIV-1 Replication. […] The titer of the virus stock was determined by serial dilution using syncytia formation and reverse transcriptase activity (see below) as a measure of infectivity in H9 cells. […]
Virus Assays. Virus was quantitated using supernatant solutions of cells harvested on day 8 (m.o.i.=0.01) or day 10 (m.o.i.=0.001) of treatment. […]

HIV-1 [2] = assay: Syncytia assay in HIV-1 infected H9 cells; type: cell-based, HIV-1 strain HXB2gptX (in human H9 cells); conditions: H9 cells
Description: (§2) Media was changed every other day. The effect of these compounds on virus production was determined by measuring the reverse transcriptase (RT) activity in samples of the cell culture supernatants. […] Negative controls consisted of no additions or 0.1ethanol. The results of duplicate assays were averaged. Panel B -Concentration-dependent effects of 13-oxamyristic acid on HIV-1 replication as measured by RT activity (percent of untreated control) and the presence of p24 antigen (ng/ml determined by ELISA). Error bars indicate the S.E.M. of assays done in triplicate. Panel C - The effect of 13-oxamyristic acid on syncytia formation using an arbitrary scale described under Materials and Methods, Example 16, below. Panel D - Toxicity of 13-oxamyristic acid determined by viable cell count (trypan blue exclusion), as well as by [^3 H]thymidine and [^3 H]leucine labeling (see under Materials and Methods, Example 16, below). The incorporation of these radiolabeled compounds was determined in the total cell population contained in a well after 10 days of treatment with the analog. Duplicate assays were performed and the results averaged.
Assay for HIV-1 Replication. The human T-lymphoid cell line, H9, was provided by R. D. Gallo (NIH) and maintained in RPMI-1640 medium supplemented with 10% fetal bovine serum, 100 IU/mL penicillin, 100 μg/mL streptomycin an 2 mM L-glutamine. […] The titer of the virus stock was determined by serial dilution using syncytia formation and reverse transcriptase activity (see below) as a measure of infectivity in H9 cells. […]
Syncytia Assay. The number of syncytia in each well was determined by microscopic examination on days 4-6 (infected, untreated control cultures), 8 and 10 (analog or decanoate treated cultures). The average number of multi-nucleated giant cells counted per 10 low-power fields (LPF =40 times magnification) was assigned to an arbitrary syncytia scale: 0=<1/LPF, 1+=1-4/LPF, 2+=5-7/LPF, 3+= 8-10/LPF, 4+=>10/LPF. By this criteria uninfected, control cells had zero synctia, and infected, untreated H9 cells were consistently scored as 4+.

HIV-1 [3] = assay: HIV-1 replication in H9 cells, reverse transcriptase activity of culture supernatants (acute infection); type: cell-based, HIV-1 strain HXB2gptX (in human H9 cells); conditions: for relative efficacy on HIV-1 production: 1-100 μM, ranking among the four analogs
Description: as §2
Assay for HIV-1 Replication. The human T-lymphoid cell line, H9, was provided by R. D. Gallo (NIH) and maintained in RPMI-1640 medium supplemented with 10% fetal bovine serum, 100 IU/mL penicillin, 100 μg/mL streptomycin an 2 mM L-glutamine. HIV-1 strain HXB2gptX [Fisher et al., Science 233, 655-659 (1986)] was obtained from cultures of chronically infected H9 cells [Popovic et al., Science 224, 497-500 (1984)]< filtered through 0.2 μm Millipore filters and stored at -90° C. The titer of the virus stock was determined by serial dilution using syncytia formation and reverse transcriptase activity (see below) as a measure of infectivity in H9 cells.
Cell-free HIV-1, at a multiplicity of infection (m.o.i.) equal to 0.01-0.001, was added to 10^7 H9 cells which had been pretreated with 2 μg/ml Polybrene® (hexadimethrene bromide, Sigma). Following a 30 min incubation at 37° C. to absorb the virus, 4 × 10^5 of virus treated cells in 1 mL of fresh medium (plus 10% fetal calf serum, pencillin and streptomycin) were added to each well of a 24 well tissue culture plate (Falcon), and mixed with an equal volume of serum-free RPMI-1640 medium containing analog. Medium containing 5% serum, antibiotics ± analog was replaced every other day. Each of the heteroatom substituted analogs was prepared as a 100 mM stock solution in 100% ethanol and stored at -90° C. prior to dilution in the serum-free RPMI-1640 medium. The maximum final ethanol concentration reached after dilution of the different analogs in media was 0.1%. Therefore, uninfected and infected H9 cells, treated with or without 0.1% ethanol, were used as controls for each test. Ethanol alone had no demonstrable effects.
Except for the preliminary screening of the various (coded) analogs which was done twice, all other assays were performed at least three times. Samples were tested in duplicate each time the assay was repeated.
Virus Assays. Virus was quantitated using supernatant solutions of cells harvested on day 8 (m.o.i.=0.01) or day 10 (m.o.i.=0.001) of treatment. Virions were concentrated 10 fold by precipitation of culture supernatants with a solution of polyethylene glycol (30% in 150 mM NaCl, 0.1 mM phenylmethylsulfonylfluoride). The precipitates were solubilized and virus-associated reverse transcriptase (RT) activity measured by [^32 P]TTP incorporation using a poly(rA)-oligo(dT) template [Poiesz et al., Proc. Natl. Acad. Sci. USA 77, 7415-7419 (1980)]. Cell supernatants were also tested for virus-specific antigen using a p24 ELISA from Dupont (Wilmington, DE). This assay can detect as little as 0.03 ng of antigen/mL (antigen=p24, the major structural nucleocapsid protein of HIV-1, as well as its precursor, Pr55^gag).
HIV-1 Replication in H9 Cells is Inhibited by Treatment with Heteroatom-Containing Analogs of Myristate. […]

[4] = Human immunodeficiency virus 1, H9, 240 h, read-out: reverse transcriptase (RT) activity

SMILES: COCCCCCCCCCCCC(=O)O [13-oxamyristate, 12-(Methoxy)dodecanoic acid]
- [3H]leucine labeling (H9 cells): correlated with the cell survival data
- [3H]thymidine labeling (H9 cells): correlated with the cell survival data
- reduction in virus replication (p24 ELISA) (HIV-1 [1]): greater than 90%
- reduction in syncytia compared with AZT (HIV-1 [2]; 40-80 μM vs 5 μM AZT): comparable to that obtained with 5 μM AZT
- syncytia reduction compared with RT and p24 assays (HIV-1 [2]; FIG. 1C): paralleled the results of the reverse transcriptase and p24 ELISA assays
- dose dependence of reduction in reverse transcriptase activity (HIV-1 [3]; 0.1 μM to 100 μM, H9 cells): dose dependent reduction in reverse transcriptase activity
- effect on reverse transcriptase activity (HIV-1 [3]; 1-10 μM, 10 day incubation, HIV-1 infected H9 cells): More pronounced effects
- relative efficacy on HIV-1 production (HIV-1 [3]; H9 cells): greatest effects
- relative efficacy on HIV-1 production (HIV-1 [3]; H9 cells, listed as 13-oxamyristic acid): most effective
- reduction in virus replication (reverse transcriptase) (HIV-1 [3]; 20-40 μM range, H9 cells): greater than 90%
- activity at 10 µM (HIV-1 [3]; [4]): 20%
- activity at 100 µM (HIV-1 [3]; [4]): < 10%
